Test results taken from PubChem BioAssay (NCI).
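Cells were grown in 96-well plates and exposed to each compound for 48 hours at five concentrations; endpoints were interpolated linearly between bracketing concentrations, or set to the highest concentration if not reached. TGI: total growth inhibition.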

Legend:
Assay in all cases: growth of human tumour cells (NCI), 48 h
[1] = system: SK-MEL-2 melanoma
[2] = system: HOP-62 NSCLC
[3] = system: UO-31 renal
[4] = system: T-47D breast
[5] = system: MDA-MB-231 breast
[6] = system: MDA-MB-435
[7] = system: OVCAR-4 ovarian
[8] = system: EKVX NSCLC
[9] = system: CAKI-1 renal
[10] = system: 786-0 renal
[11] = system: NCI-H226 lung

Compound | TGI [1] [µM] | TGI [2] [µM] | TGI [3] [µM] | TGI [4] [µM] | TGI [5] [µM] | TGI [6] [µM] | TGI [7] [µM] | TGI [8] [µM] | TGI [9] [µM] | TGI [10] [µM] | TGI [11] [µM]
COc1ccc(N=C(SSC(=Nc2ccc(OC)cc2)c2ccc([N+](=O)[O-])o2)c2ccc([N+](=O)[O-])o2)cc1 | 4.73 | 6.41 | 3.01 | 4.2 | 7.33 | 3.93 | 2.92 | 3.47 | 5.87 | 4.18 | 37.3
CCCCSC1=N/C(=C\c2ccccc2O)C(Cl)=N1 | > 100 | > 100 | > 100 | > 100 | > 100 | > 100 | > 100 | > 100 | > 100 | > 100 | > 100
COc1ccc2c(C=O)c3n(c(=O)c2c1OC)CCc1cc2c(cc1-3)OCO2 | > 100 | > 100 | > 100 | > 100 | > 100 | > 100 | > 100 | > 100 | > 100 | > 100 | > 100
CCOC(=O)c1ccc(-c2cccs2)[nH]1 | > 100 | > 100 | > 89 | > 92.1 | > 100 | > 100 | > 100 | > 100 | > 100 | > 100 | > 100
COc1ccc(OC)c2c(Nc3ccc(S(=O)(=O)O)c4cc(S(=O)(=O)O)cc(S(=O)(=O)O)c34)cc(C)nc12 | > 100 | > 100 | > 100 | > 100 | > 100 | > 100 | > 100 | > 100 | > 100 | > 100 | > 100
CC1=C(C(=O)OC(C)(C)C)C(c2ccc([N+](=O)[O-])cc2)C(C(=O)OC(C)(C)C)=C(C)N1 | 46.6 | 40.8 | 33.5 | 33.4 | 41.4 | 57.9 | 37.4 | 38.4 | 56.4 | 38.7 | 39.1
CCOC(=O)c1c(SCCN(CC)CC)n(-c2ccccc2)c(=S)n(-c2ccccc2)c1=O | 30.1 | 32.6 | 3.12 | 15.3 | 9.04 | 4.81 | 25.5 | 24.8 | 4.68 | 3.17 | 41.1
CCCCN1/C(=N/Nc2n[nH]c(=O)c3ccccc23)SCC1c1ccc(Cl)cc1 (stereo not given) | 56.4 | 18.5 | 93.3 | > 100 | 55 | 31.9 | > 100 | 41.2 | 77.4 | 42.2 | 27.5
CO/C(N)=C(\C#N)N=Cc1cccs1 | > 100 | > 100 | > 100 | > 100 | > 100 | 73.3 | > 100 | > 100 | > 100 | > 100 | > 100
Clc1cc2ncn(C3CCCO3)c2cc1Cl (stereo not given) | > 100 | > 100 | 53.6 | > 100 | > 100 | > 100 | > 100 | > 100 | > 100 | > 100 | > 100
O=CC12CCCN1CCC2 | > 100 | > 100 | > 100 | > 100 | > 100 | > 100 | > 100 | > 100 | > 100 | > 100 | > 100
CCOP(=O)(OCC)/C(C#N)=C(\C)c1ccco1 | > 10 | > 10 | > 10 | > 10 | > 10 | > 10 | > 10 | > 10 | > 10 | > 10 | > 10
CC(=O)OC1C(C)OC(OC2C[C@](O)(C(C)=O)Cc3c(O)c4c(c(O)c32)C(=O)c2ccccc2C4=O)C(F)C1OC(C)=O (stereo not given in full) | 11.3 | 13.8 | 0.567 | 41.2 | 10.7 | 23.5 | 41.8 | 99.2 | 1.39 | 2.36 | 2.86
N#Cc1c(N)n(-c2nc3ccccc3s2)c(=O)c2cc([N+](=O)[O-])ccc12 | 40.3 | 22 | > 79.2 | > 100 | 50.5 | > 69.1 | > 100 | > 56.3 | 58.5 | > 66.3 | 52.6
O=C(C[N+]1(c2ccccc2)CCOCC1)c1ccccc1 | > 100 | > 100 | > 100 | > 100 | > 100 | > 100 | > 100 | > 100 | > 100 | > 100 | > 100
CCCCCCCCCCCCCCCC(=O)OCC(COP(=O)(O)OCCNC(=O)CCSSc1ccccn1)OC(=O)CCCCCCCCCCCCCCC (stereo not given) | > 100 | > 100 | > 100 | > 100 | > 100 | > 100 | > 100 | > 100 | > 100 | > 100 | > 100
CCOC(=O)C1(NC(=O)OC(C)(C)C)CCc2[nH]oc(=O)c2C1 (stereo not given) | > 100 | > 100 | > 100 | > 100 | > 100 | > 100 | > 100 | > 100 | > 100 | > 100 | > 100
N=c1sc(N2CCOCC2)nn1CC(=O)c1ccccc1 | > 100 | > 100 | > 100 | > 100 | > 100 | > 100 | > 100 | > 100 | > 100 | > 100 | > 100

Compound | TGI [1] [µM] | TGI [2] [µM] | TGI [3] [µM] | TGI [4] [µM] | TGI [5] [µM] | TGI [6] [µM] | TGI [7] [µM] | TGI [8] [µM] | TGI [9] [µM] | TGI [10] [µM] | TGI [11] [µM]
Oc1[nH]c2ccccc2c1N=Nc1nc(-c2ccccc2)cs1 | > 100 | 66.4 | > 100 | > 100 | 99.7 | > 100 | > 100 | 76.7 | 39.8 | > 100 | > 100
Cc1nnc(N)s/c1=N/O | > 100 | > 100 | > 100 | > 100 | > 100 | > 100 | > 100 | > 100 | > 100 | > 100 | > 100
Nc1c(/C=C/c2cc3cc(C4=NCCN4)ccc3o2)[nH]c2cc(C3=NCCN3)ccc12 | > 100 | 96 | > 100 | > 100 | > 100 | > 100 | > 100 | > 100 | > 100 | > 100 | > 100
CC(C)(C)OC(=O)NCCCCC1NC(=O)[C@@H]2Cc3c([nH]c4ccccc34)C(c3ccccc3)N2C1=O (stereo not given in full) | 50.5 | > 100 | > 100 | > 100 | 94.6 | > 100 | > 100 | > 100 | > 100 | 82.3 | > 100
N#Cc1c2c(c(Nc3ccc(Cl)cc3)n3c1nc1ccccc13)CCCC2 | > 100 | > 100 | > 100 | > 100 | > 100 | > 100 | > 96.6 | > 100 | > 100 | > 100 | > 100
CC(=O)OC/C=C/Cn1nc(Br)c(=O)[nH]c1=O | > 100 | > 100 | > 100 | > 100 | > 100 | > 100 | > 100 | > 100 | > 100 | > 100 | > 100
COc1ccc(NC(=S)Nc2cccc(C)n2)cc1 | > 100 | 64.3 | > 100 | > 100 | > 100 | > 100 | > 100 | > 100 | > 100 | > 100 | > 100
O=C(Cn1c(-c2ccccc2)cc2ccccc21)N1CCOCC1 | > 100 | > 100 | > 100 | > 100 | > 100 | > 100 | > 100 | > 100 | > 100 | > 100 | > 100
O=C1CSC(c2cccc(Oc3ccccc3)c2)N1c1cc(Cl)ccc1Cl (stereo not given) | 36.3 | 47.1 | 43.3 | 89.6 | 43.3 | 40.2 | 60.8 | 80.9 | 48.8 | 36.9 | 46.7
O=P1(C(O)c2ccccc2)N(Cc2ccccc2)[C@@H]2CCCC[C@H]2N1Cc1ccccc1 (stereo not given in full) | 73.7 | > 100 | > 100 | 85.6 | 53.8 | 71 | 53.1 | > 100 | > 100 | 47.9 | 64.7
O=C(CCc1ccccc1)NCCc1ccc(O)c(O)c1 | 49.5 | 97.3 | 49.2 | > 100 | > 72.3 | 29.4 | 46.7 | > 100 | 29.4 | > 82.2 | > 100
CC(=O)CC(=O)N1CCOC1=O | > 10 | > 10 | > 10 | > 10 | > 10 | > 10 | > 10 | > 10 | > 10 | > 10 | > 10
C[C@@H](c1ccccc1)N(CC#N)[C@H]1CCC[C@]1(O)/C=C/c1ccc2c(c1)OCO2 | > 25 | > 25 | > 25 | > 25 | > 25 | > 25 | > 25 | > 25 | > 25 | > 25 | > 25
CC(C)S1=C2C(=O)CC(C)(C)CC2=Nc2ccccc21 (stereo not given) | > 100 | > 100 | > 100 | > 100 | > 100 | > 100 | > 100 | > 100 | > 100 | > 100 | > 100
CCCSC1=N/C(=C\c2ccco2)C(=O)N1 | > 100 | > 100 | > 100 | > 100 | > 100 | > 100 | > 100 | > 100 | > 100 | > 100 | > 100
CN1Cc2c(ccc3c2OCO3)[C@@H]2[C@H](O)Cc3cc4c(cc3[C@@H]21)OCO4 | > 27.1 | 28.1 | > 100 | > 100 | 24.6 | 2.53 | > 100 | > 100 | > 100 | > 75 | 9.94
COc1cc(CC2C(=O)OCC2Cc2ccc(OC)c(OC)c2)ccc1O (stereo not given) | > 100 | > 100 | > 100 | > 100 | > 100 | > 100 | > 100 | > 100 | > 100 | > 100 | > 100
